Peptide text beside a SMILES is read from it. * marks the point of attachment. αGalNAc = CC(=O)N[C@@H]1[C@@H](O)[C@@H](O)[C@@H](CO)O[C@@H]1*
system: normal adult rats; test: Systemic (subcutaneous) administration to normal adult rats, pQCT bone densitometry of tibia; type: in vivo, rat; details: 0.4 ng/g B.W. every 2 days for two weeks, vs saline
Description: After humane sacrifice, long bones were collected from rats subjected to agent treatment as described in Examples 1 and 2. The bones were evaluated using densitometry techniques with the Norland Medical Systems pQCT scanner. The densitometric parameters that were determined included: • 1. Total Content, which is the mineral content of the bone within a 1 mm slice. • 2. Total Density, which is the mean density of the total bone. • 3. Trabecular Content, which is the mineral content of the trabecular bone within a 1 mm slice. • 4. Trabecular Density, which is the mean density of the trabecular bone • 5. Cortical Content, which is the mineral content of the cortical bone within a 1 mm slice. • 6. Cortical Density, which is the mean density of the […]. • 7. Periosteal circumference in the “circular ring model” in mm. • 8. Endosteal circumference in the “circular ring model” in mm. • 9. Total area (mm^2), which is the cross sectional area of the bone after the soft tissue has been peeled off. • 10. Cortical area (mm^2), which is the area assigned to be pure cortical. • 11. Trabecular area (mm^2), which is the cross sectional area of the trabecular area after the cortical and subcortical area has been peeled off. Effects of Agents on Bone Density:
Non-glycosylated fADBP, at a dosage of 0.4 ng/g of body weight, was administered by subcutaneous injection into normal adult rats every two days for two weeks. The effect of this treatment on bone density and DpD levels was assayed as described above.
Glycosylated fADBP, at a dosage of 5.0 ng/g of body weight was administered by subcutaneous injection into normal adult rats every two days for two weeks. The effect of this treatment on bone density was assayed as described above.
Non-glycosylated DBP peptides of different lengths, at a dosage of 0.4 ng/g of body weight, were administered by subcutaneous injection into normal adult rats every two days for two weeks. The DBP peptides were derived from fADBP and comprised the first 3, 4, 5, 6, 7, 8, 9, 10, 11, 12, and 13 amino acids of SEQ ID NO. 1. After humane sacrifice, the tibia was collected from control and DBP peptide treated rats and analyzed using densitometry techniques with the Norland Medical Systems pQCT scanner. Statistical analysis was performed

Molecule	Total Bone Density
DBP peptide 10: first 10 amino acids of SEQ ID NO. 1 (Thr Pro Thr Glu Leu Ala Lys Leu Val Asn) (TPTELAKLVN; listed as Homo sapiens)	significantly increased
DBP peptide 5: first 5 amino acids of SEQ ID NO. 1 (Thr Pro Thr Glu Leu) (TPTEL; listed as Homo sapiens)	significantly increased
DBP peptide 11: first 11 amino acids of SEQ ID NO. 1 (Thr Pro Thr Glu Leu Ala Lys Leu Val Asn Lys) (TPTELAKLVNK; listed as Homo sapiens)	significantly increased
DBP peptide 7: first 7 amino acids of SEQ ID NO. 1 (Thr Pro Thr Glu Leu Ala Lys) (TPTELAK; listed as Homo sapiens)	significantly increased
DBP peptide 8: first 8 amino acids of SEQ ID NO. 1 (Thr Pro Thr Glu Leu Ala Lys Leu) (TPTELAKL; listed as Homo sapiens)	significantly increased
DBP peptide 6: first 6 amino acids of SEQ ID NO. 1 (Thr Pro Thr Glu Leu Ala) (TPTELA; listed as Homo sapiens)	significantly increased
DBP peptide 3: first 3 amino acids of SEQ ID NO. 1 (Thr Pro Thr) (TPT; listed as Homo sapiens)	significantly increased
DBP peptide 12: first 12 amino acids of SEQ ID NO. 1 (Thr Pro Thr Glu Leu Ala Lys Leu Val Asn Lys Arg) (TPTELAKLVNKR; listed as Homo sapiens)	significantly increased
DBP peptide 4: first 4 amino acids of SEQ ID NO. 1 (Thr Pro Thr Glu) (TPTE; listed as Homo sapiens)	significantly increased

system: Ovariectomized Sprague-Dawley rats; test: High-dose administration to ovariectomized Sprague-Dawley rats; type: in vivo; details: 100 ng/g to 30 μg/g body weight every day for 60 days
Description: Ovariectomized Sprague-Dawley rats were allowed to lose bone from 60 days. Thereafter, animals were injected with glycosylated fADBP or non-glycosylated fADBP, at concentrations ranging from 100 ng/g of body weight to 30 μg/g of body weight every day for 60 days.

Molecule	toxic effect
CC(=O)N[C@H]1[C@@H](O[C@H](C)[C@H](NC(=O)[C@@H]2CCCN2C(=O)[C@@H](N)[C@@H](C)O)C(=O)N[C@@H](CCC(=O)O)C(=O)N[C@@H](CC(C)C)C(=O)N[C@@H](C)C(=O)N[C@@H](CCCCN)C(=O)N[C@@H](CC(C)C)C(=O)N[C@H](C(=O)N[C@@H](CC(N)=O)C(=O)N[C@@H](CCCCN)C(=O)N[C@@H](CCCNC(=N)N)C(=O)N[C@@H](CO)C(=O)N[C@@H](CCC(=O)O)C(=O)O)C(C)C)O[C@H](CO)[C@H](O)[C@@H]1O [Glycosylated fADBP] (H-TPT(αGalNAc)ELAKLVNKRSE-OH)	no detectable toxic effect

From US7226904B2, “Agents and methods for promoting bone growth” (priority 2000, dated 2007)
